Reference: publication PMC5154332 (Neuropharmacology, 2017)
Several values for one entry are separate records, joined by “and”; a condition that tells them apart may be missing. Equal entries are not always repeated. Where two headings read alike, the source gives them in different places.

Assays:
[1] = target: hNav1.4 channels (Homo sapiens, UniProt P35499); assay: cell-based
[2] = tested on: rat model of myotonia; assay: In vivo antimyotonic activity, time of righting reflex
[3] = target: hERG potassium channel (Homo sapiens, UniProt Q12809); assay: Patch-clamp of hERG potassium currents in transfected tsA201 cells; format: cell-based
Chain of hERG potassium channel (Q12809 whole entry): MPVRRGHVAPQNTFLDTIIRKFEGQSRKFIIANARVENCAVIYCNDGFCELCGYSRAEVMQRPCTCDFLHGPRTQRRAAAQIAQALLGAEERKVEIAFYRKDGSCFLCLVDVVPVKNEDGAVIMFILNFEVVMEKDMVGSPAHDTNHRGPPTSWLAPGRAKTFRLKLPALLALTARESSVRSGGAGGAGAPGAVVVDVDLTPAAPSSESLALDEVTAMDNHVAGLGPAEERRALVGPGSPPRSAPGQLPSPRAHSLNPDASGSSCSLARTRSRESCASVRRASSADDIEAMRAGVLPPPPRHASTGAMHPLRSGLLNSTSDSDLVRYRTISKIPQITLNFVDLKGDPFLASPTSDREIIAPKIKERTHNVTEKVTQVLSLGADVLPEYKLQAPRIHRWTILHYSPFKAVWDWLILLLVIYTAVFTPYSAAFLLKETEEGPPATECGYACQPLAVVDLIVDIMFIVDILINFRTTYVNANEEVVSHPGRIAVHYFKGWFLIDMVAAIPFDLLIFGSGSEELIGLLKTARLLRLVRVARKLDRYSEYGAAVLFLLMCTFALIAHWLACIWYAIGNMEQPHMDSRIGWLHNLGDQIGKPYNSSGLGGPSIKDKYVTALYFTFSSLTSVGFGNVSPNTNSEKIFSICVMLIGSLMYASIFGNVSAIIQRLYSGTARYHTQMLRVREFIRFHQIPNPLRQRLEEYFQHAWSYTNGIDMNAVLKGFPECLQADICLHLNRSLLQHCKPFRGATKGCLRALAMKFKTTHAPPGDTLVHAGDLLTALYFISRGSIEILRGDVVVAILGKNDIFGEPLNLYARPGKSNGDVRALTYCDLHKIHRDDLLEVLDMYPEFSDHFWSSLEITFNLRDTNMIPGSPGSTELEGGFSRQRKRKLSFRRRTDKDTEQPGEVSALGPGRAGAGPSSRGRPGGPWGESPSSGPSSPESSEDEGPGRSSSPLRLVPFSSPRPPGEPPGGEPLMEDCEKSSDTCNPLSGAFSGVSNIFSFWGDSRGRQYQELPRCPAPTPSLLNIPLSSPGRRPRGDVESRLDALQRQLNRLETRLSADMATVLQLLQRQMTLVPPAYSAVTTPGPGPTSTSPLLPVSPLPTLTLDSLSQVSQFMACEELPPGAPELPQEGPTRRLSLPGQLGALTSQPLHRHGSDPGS

[4] = target: hNav1.4 – WT (Homo sapiens, UniProt P35499); details: cited from earlier work; for 0.1-to-10 Hz ratio: ratio of IC50 values
Chain of hNav1.4 – WT (P35499 whole entry): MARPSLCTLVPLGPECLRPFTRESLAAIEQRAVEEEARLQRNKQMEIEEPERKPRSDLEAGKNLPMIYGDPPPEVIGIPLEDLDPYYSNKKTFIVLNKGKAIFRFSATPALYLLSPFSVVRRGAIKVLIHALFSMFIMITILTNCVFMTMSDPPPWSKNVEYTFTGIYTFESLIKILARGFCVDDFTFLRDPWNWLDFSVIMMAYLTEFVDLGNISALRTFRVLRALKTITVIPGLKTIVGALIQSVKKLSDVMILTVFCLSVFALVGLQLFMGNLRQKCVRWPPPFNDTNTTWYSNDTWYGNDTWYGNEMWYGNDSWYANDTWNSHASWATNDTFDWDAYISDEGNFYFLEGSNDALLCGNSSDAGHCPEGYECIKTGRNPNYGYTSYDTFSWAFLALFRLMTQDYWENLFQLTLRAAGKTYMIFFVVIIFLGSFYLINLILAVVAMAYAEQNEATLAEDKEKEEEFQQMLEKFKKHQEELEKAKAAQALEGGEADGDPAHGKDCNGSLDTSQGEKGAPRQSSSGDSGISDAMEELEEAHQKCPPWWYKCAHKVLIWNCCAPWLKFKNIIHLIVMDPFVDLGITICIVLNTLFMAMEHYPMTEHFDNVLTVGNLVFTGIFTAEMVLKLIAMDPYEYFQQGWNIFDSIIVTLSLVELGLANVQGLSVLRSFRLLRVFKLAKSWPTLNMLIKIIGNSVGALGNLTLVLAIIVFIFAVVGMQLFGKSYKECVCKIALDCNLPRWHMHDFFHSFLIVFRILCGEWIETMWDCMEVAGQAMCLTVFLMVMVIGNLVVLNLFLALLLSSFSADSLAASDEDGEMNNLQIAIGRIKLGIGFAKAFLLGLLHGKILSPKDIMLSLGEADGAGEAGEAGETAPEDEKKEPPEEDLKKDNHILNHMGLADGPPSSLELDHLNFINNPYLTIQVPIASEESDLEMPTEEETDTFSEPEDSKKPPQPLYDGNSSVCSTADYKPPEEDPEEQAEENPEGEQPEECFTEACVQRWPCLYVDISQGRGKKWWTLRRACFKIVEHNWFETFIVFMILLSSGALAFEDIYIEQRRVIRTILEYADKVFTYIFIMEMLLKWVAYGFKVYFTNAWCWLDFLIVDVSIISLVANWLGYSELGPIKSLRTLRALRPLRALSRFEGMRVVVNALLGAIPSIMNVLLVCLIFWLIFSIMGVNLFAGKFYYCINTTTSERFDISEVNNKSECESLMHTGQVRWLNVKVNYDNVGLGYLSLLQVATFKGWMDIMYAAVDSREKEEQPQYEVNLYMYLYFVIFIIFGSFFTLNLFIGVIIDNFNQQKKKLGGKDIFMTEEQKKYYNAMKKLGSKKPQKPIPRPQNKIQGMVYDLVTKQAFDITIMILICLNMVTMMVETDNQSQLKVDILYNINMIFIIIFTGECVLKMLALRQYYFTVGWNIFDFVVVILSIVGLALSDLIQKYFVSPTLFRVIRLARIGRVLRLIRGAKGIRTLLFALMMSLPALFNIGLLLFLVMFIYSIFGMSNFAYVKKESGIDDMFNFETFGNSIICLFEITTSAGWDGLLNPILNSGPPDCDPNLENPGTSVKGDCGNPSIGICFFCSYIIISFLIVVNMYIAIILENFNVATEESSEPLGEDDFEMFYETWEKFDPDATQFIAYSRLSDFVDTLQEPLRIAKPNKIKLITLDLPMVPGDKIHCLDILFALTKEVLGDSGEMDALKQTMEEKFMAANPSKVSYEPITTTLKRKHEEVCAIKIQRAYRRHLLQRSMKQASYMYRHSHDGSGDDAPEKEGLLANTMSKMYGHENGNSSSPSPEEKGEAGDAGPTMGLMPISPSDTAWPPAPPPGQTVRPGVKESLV

[5] = target: hNav1.4 - F1586C (Homo sapiens, UniProt P35499, F1586C); details: ref Desaphy et al., 2012, cited from earlier work
Chain of hNav1.4 - F1586C (P35499 whole entry F1586C): as the sequence (P35499 whole entry) above, with F1586C counted along it

[6] = tested on: murine C2C12 skeletal muscle cells; assay: In vitro cytotoxicity, CCK-8 cell viability; format: cell-based; details: C2C12, 6 h, from 100 μM to 1 mM
[7] = humans; ref Lalka et al., 1976; cited from earlier work
[8] = tested on: HeLa; details: 100 μM; ref Ghelardini et al., 2010; cited from earlier work
[9] = tested on: MRC-5; details: 100 μM; ref Ghelardini et al., 2010; cited from earlier work
[10] = current at end of first voltage step

Chain of hNav1.4 channels (P35499 whole entry): as the sequence (P35499 whole entry) above

Cc1cccc(C)c1OCC(C)N (stereo not drawn) [Mexiletine, mexiletine]
In vitro nH [1]: 1.2 ± 0.2 | IC50 ([1]; In vitro IC50): 17 µM and 16.9 µM | In vivo Min ([2]; minimal TRR value of the dose-response fit): 18.0 ± 7.3% | maximal TRR reduction ([2]; oral, from dose-response fit): ~80% | concentration at which inhibition of hERG currents was complete [3, 10]: 1000 µM | concentrations at which inhibition of hERG currents was observed [3, 10]: greater than 1 μM | IC50 ([3]; hERG IC50, tail currents at −50 mV after test depolarization at −10 mV): 43 µM | ratio between hERG and hNav1.4 (myotonia-like condition) IC50 ([3]; hERG IC50 versus hNav1.4 IC50 at 50 Hz): 2.5 fold | hERG nH ([3]; tail currents, Hill slope factor): 0.79 ± 0.07 | Tonic block (0.1 Hz) nH ([4]; ref Desaphy et al., 2012): 0.9 ± 0.1 | Phasic block (10 Hz) nH ([4]; ref Desaphy et al., 2012): 0.8 ± 0.1 | 0.1-to-10 Hz ratio ([4]; ref Desaphy et al., 2012): 10.3 | IC50 ([4]; read-out: Phasic block (10 Hz) IC50, 10 Hz, ref Desaphy et al., 2012): 24 ± 2 µM | Tonic block (0.1 Hz) nH ([5]; 0.1 Hz): 1.1 ± 0.1 | Phasic block (10 Hz) nH ([5]; 10 Hz): 1.0 ± 0.2 | 0.1-to-10 Hz ratio ([5]; ratio of IC50 values): 1.2

Cc1cccc(C)c1NC(=O)C(C)N (stereo not drawn) [Tocainide, tocainide]
reduction of cell viability [6]: about 20% | Tonic block (0.1 Hz) nH ([4]; ref Ghelardini et al., 2010): 1.0 ± 0.1 | Phasic block (10 Hz) nH ([4]; ref Ghelardini et al., 2010): 1.1 ± 0.2 | 0.1-to-10 Hz ratio ([4]; ref Ghelardini et al., 2010): 3.8 | oral bioavailability [7]: ~100% | plasma protein bound [7]: ~50% | HeLa cell viability [8]: reduction | MRC-5 cell viability [9]: reduction
